Laboratory results from ChEMBL document CHEMBL3352529 (J Med Chem, 2014).

Assays:
[1] = target: T1, Neuraminidase (Influenza A virus, UniProt B4URF0); set-up: species or system A/chicken/china/415/2013(H9N2)
[2] = target: T2, Neuraminidase (Influenza A virus, UniProt A5Z252); assay: Inhibition of Influenza A virus A/chicken/china/1220/2012(H5N1) Neuraminidase N1
[3] = target: T2, Neuraminidase; assay: Binding affinity to Influenza A virus H5N1 Neuraminidase N1
[4] = target: T2, Neuraminidase; assay: Binding affinity to Influenza A virus H3N2 Neuraminidase N1
[5] = target: T1, Neuraminidase; assay: Binding affinity to Influenza A virus A/Paris/2590/2009 H1N1 Neuraminidase N1
[6] = target: T2, Neuraminidase; assay: Inhibition of Influenza A virus H1N1 Neuraminidase N1
[7] = target: T2, Neuraminidase; assay: Inhibition of Influenza A virus H3N2 Neuraminidase N1

T1 sequence (B4URF0 whole entry): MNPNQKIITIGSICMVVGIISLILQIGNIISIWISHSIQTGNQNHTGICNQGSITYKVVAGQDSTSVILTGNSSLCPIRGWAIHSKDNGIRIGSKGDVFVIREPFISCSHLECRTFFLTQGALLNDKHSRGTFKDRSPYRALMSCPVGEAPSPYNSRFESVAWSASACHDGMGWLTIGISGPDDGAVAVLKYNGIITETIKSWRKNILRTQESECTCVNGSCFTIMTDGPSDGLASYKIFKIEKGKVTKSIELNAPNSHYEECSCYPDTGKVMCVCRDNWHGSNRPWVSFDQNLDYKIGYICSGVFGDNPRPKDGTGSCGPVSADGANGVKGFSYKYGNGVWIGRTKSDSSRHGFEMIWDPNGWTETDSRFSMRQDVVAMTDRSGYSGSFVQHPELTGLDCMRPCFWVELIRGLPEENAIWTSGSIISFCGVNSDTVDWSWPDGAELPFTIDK

Row | SMILES | IC50 [1] [nM] | IC50 [2] [nM] | further results
1 | CCC(CC)O[C@@H]1C=C(C(=O)O)C[C@H](N(Cc2ccccc2)C(=N)N)[C@H]1NC(C)=O | 2600 | 1170 | –
2 | CCC(CC)O[C@@H]1C=C(C(=O)NO)C[C@H](NC(=N)N)[C@H]1NC(C)=O | 200 | > 100 | –
3 | CCC(CC)O[C@@H]1C=C(C(=O)NO)C[C@H](N)[C@H]1NC(C)=O | 110 | > 100 | –
4 | CCC(CC)O[C@@H]1C=C(C(=O)O)C[C@H](N(Cc2cccs2)C(=N)N)[C@H]1NC(C)=O | 210 | 200 | –
5 | CCC(CC)O[C@@H]1C=C(C(=O)O)C[C@H](N(Cc2ccc(C(C)C)cc2)C(=N)N)[C@H]1NC(C)=O | 2370 | 1440 | –
6 | CCC(CC)O[C@@H]1C=C(C(=O)O)C[C@H](N(Cc2ccccc2OC)C(=N)N)[C@H]1NC(C)=O | 490 | 550 | –
7 | CCC(CC)O[C@@H]1C=C(C(=O)O)C[C@H](N(Cc2ccc(-c3ccccc3)cc2)C(=N)N)[C@H]1NC(C)=O | 470 | 150 | –
8 | CCCN(C(=N)N)[C@H]1CC(C(=O)O)=C[C@@H](OC(CC)CC)[C@@H]1NC(C)=O | > 5000 | 670 | –
9 | CCC(CC)O[C@@H]1C=C(C(=O)O)C[C@H](N(CC(C)C)C(=N)N)[C@H]1NC(C)=O | > 5000 | 230 | –
10 | CCCCCN(C(=N)N)[C@H]1CC(C(=O)O)=C[C@@H](OC(CC)CC)[C@@H]1NC(C)=O | > 5000 | 780 | –
11 | CCCCN(C(=N)N)[C@H]1CC(C(=O)O)=C[C@@H](OC(CC)CC)[C@@H]1NC(C)=O | 1480 | 1140 | –
12 | CCC(CC)O[C@@H]1C=C(C(=O)O)C[C@H](N(CCC(C)C)C(=N)N)[C@H]1NC(C)=O | > 5000 | 370 | –
13 | CCC(CC)CN(C(=N)N)[C@H]1CC(C(=O)O)=C[C@@H](OC(CC)CC)[C@@H]1NC(C)=O | > 5000 | 950 | –
14 | CCC(CC)O[C@@H]1C=C(C(=O)O)C[C@H](N(CCCc2ccccc2)C(=N)N)[C@H]1NC(C)=O | > 5000 | 790 | –
15 | CCC(CC)CN[C@H]1CC(C(=O)O)=C[C@@H](OC(CC)CC)[C@@H]1NC(C)=O | 300 | 27 | –
16 | CCCCN[C@H]1CC(C(=O)O)=C[C@@H](OC(CC)CC)[C@@H]1NC(C)=O | 2280 | 19 | –
17 | CCC(CC)O[C@@H]1C=C(C(=O)O)C[C@H](NCC(C)C)[C@H]1NC(C)=O | > 5000 | 78 | –
18 | CCC(CC)O[C@@H]1C=C(C(=O)O)C[C@H](NCc2cccs2)[C@H]1NC(C)=O | 740 | 15 | –

Row | SMILES | IC50 [1] [nM] | IC50 [2] [nM] | further results
19 | CCC(CC)O[C@@H]1C=C(C(=O)O)C[C@H](NCc2ccccc2)[C@H]1NC(C)=O | 2440 | 7.1 | –
20 | CCC(CC)O[C@@H]1C=C(C(=O)O)C[C@H](NCc2ccccc2OC)[C@H]1NC(C)=O | 1640 | 31 | –
21 | CCC(CC)O[C@@H]1C=C(C(=O)O)C[C@H](NCc2ccccc2O)[C@H]1NC(C)=O | > 5000 | 21 | –
22 | CCC(CC)O[C@@H]1C=C(C(=O)O)C[C@H](NCc2ccccc2Cl)[C@H]1NC(C)=O | 980 | 3.6 | –
23 | CCC(CC)O[C@@H]1C=C(C(=O)O)C[C@H](NCc2ccccc2Br)[C@H]1NC(C)=O | 1150 | 13 | –
24 | CCC(CC)O[C@@H]1C=C(C(=O)O)C[C@H](NCc2ccccc2F)[C@H]1NC(C)=O | 2720 | 10 | –
25 | CCC(CC)O[C@@H]1C=C(C(=O)O)C[C@H](NC/C=C/c2ccccc2)[C@H]1NC(C)=O | 4020 | 14 | –
26 | CCC(CC)O[C@@H]1C=C(C(=O)O)C[C@H](NCc2ccc(-c3ccccc3)cc2)[C@H]1NC(C)=O | 1200 | 1.9 | –
27 | CCC(CC)O[C@@H]1C=C(C(=O)O)C[C@H](NCCCc2ccccc2)[C@H]1NC(C)=O | > 5000 | 32 | –
28 | CCC(CC)O[C@@H]1C=C(C(=O)O)C[C@H](NCCCN)[C@H]1NC(C)=O | 950 | > 100 | –
29 | CCC(CC)O[C@@H]1C=C(C(=O)O)C[C@H](NCc2ccccc2OCc2ccco2)[C@H]1NC(C)=O | 1530 | 59 | –
30 | C=CCOc1ccccc1CN[C@H]1CC(C(=O)O)=C[C@@H](OC(CC)CC)[C@@H]1NC(C)=O | 4700 | 90 | –
31 | CCC(CC)O[C@@H]1C=C(C(=O)O)C[C@H](NCc2ccc(-c3ccccc3)cc2Cl)[C@H]1NC(C)=O | 2020 | 11 | –
32 | CCC(CC)O[C@@H]1C=C(C(=O)O)C[C@H](NCc2ccc(-c3ccccc3)cc2-c2ccccc2)[C@H]1NC(C)=O | 3.2 | 43 | –
33 | CCC(CC)O[C@@H]1C=C(C(=O)O)C[C@H](NCc2ccc(-c3cccs3)cc2)[C@H]1NC(C)=O | 3520 | 2.1 | –
34 | CC(=O)N[C@H]1C([C@H](O)[C@H](O)CO)OC(C(=O)O)=C(C/C=C/c2ccc(C)cc2)[C@@H]1O (stereo partly drawn) | – | – | Ki [3]: 7300 nM; Ki [4]: 219000 nM; Ki [5]: 1700 nM
35 | CC(=O)N[C@H]1[C@H]([C@H](O)[C@H](O)CO)OC(C(=O)O)=C[C@@H]1NC(=N)NC(=O)CSc1cccc2ccccc12 | – | – | IC50 [6]: 21 nM; IC50 [7]: 25 nM
36 | CCC(CC)O[C@@H]1C=C(C(=O)O)C[C@H](NC(=N)N)[C@H]1NC(C)=O | 6.4 | 6.9 | –
